Measurements from US6709864B1, “Adipogenic differentiation of human mesenchymal stem cells” (Osiris Therapeutics, Inc., priority 1996, dated 2004).

Columns and labels:
[1] = system: human mesenchymal stem cells; assay: Adipogenesis assay of hMSCs, lipid vacuoles observed by microscopy / Oil Red O; assay type: cell-based; conditions: methyl isobutylxanthine alone in normal hMSC media during induction, then 14 days Adipogenic Maintenance Media
Method: Human MSCs are isolated from the red bone marrow of volunteer donors as described in U.S. Pat. No.5,486,359. The cells are grown until colonies are well established and at this point the cells are subcultured (1 to 3) or they can be taken to assay for in vitro adipogenesis. For the adipogenesis assay, hMSCs are subcultured into 35 mm tissue culture dishes at 100,000 cells per dish and fed with 2 milliliters normal hMSC Media (Dulbecco's Modified Eagle's Media (DMEM), 10% selected Fetal Bovine Serum (FBS) and antibiotic/antimycotic mixture (IX) (Life Technologies, Inc.)) and cells are maintained at 37° C., 5% CO2 and 90% humidity. The cells are refed with the fresh media every third day and are allowed to multiply and become confluent. The cells are maintained after reaching confluence by refeeding every third day and this time period of post confluence culturing enhances the adipogenic response in the next step (at least out to 14 days). The differentiation into adipocytes is initiated by changing the media to 2 ml of Adipogenic Induction Media (DMEM with 10% fetal bovine serum containing 10 μg/ml insulin (human recombinant, Boehringer Mannheim Corp.), 0.5 mM methyl isobutylxanthine (MIX)(Sigma Chemical Co.), 1 μM dexamethasone (Dex)(Sigma Chemical Co.)). […]

[2] = system: human mesenchymal stem cells; assay: Nile Red / DAPI fluorescence plate reader assay of adipogenic differentiation of hMSCs; assay type: cell-based
Method: These experiments were performed to determine the effect of adding varying concentrations of indomethacin to mesenchymal stem cells in culture to induce adipogenic differentiation. […] We also tested indomethacin under the same conditions however in the absence of methyl isobutylxanthine. The results were compared visually by observing the accumulation of lipid within the cells and by staining the lipid with the fluorescent lipid-soluble dye Nile Red and reading on a fluorescence plate reader as described in Example 6. These experiments were performed to determine the effect of adding varying concentrations of 15-deoxy Δ^12,14 -prostaglandin J2 (15d-PGJ2) to […] in culture to induce adipogenic differentiation. […] We also tested 15d-PGJ2 under the same conditions without methyl isobutylxanthine present. hMSCs were grown in 12 or 24 well tissue culture plates and were treated with adipogenic inducing agents as described above when the cells were post-confluent. After three treatments, the cells were allowed to accumulate lipid for an additional week prior to analysis. The cell layers were rinsed with Dulbecco's modified PBS (D.PBS) and fixed for 30 minutes in 10% Neutral Buffered Formalin. The plates were then rinsed with D. PBS and incubated for 30 minutes with 0.02% Saponin, 0.8 μg/ml DAPI (from an aqueous 2 mg/ml stock) and 1 μg/ml Nile Red (from a 1 mg/ml stock in acetone) in D. PBS. Plates were then rinsed three times with D.PBS.

[3] = 1 μM 15d-PGJ2 with insulin only (I)
[4] = 10 μM 15d-PGJ2 with insulin only (I)
[5] = 50 μM indomethacin in DI (no MIX)
[6] = 50 μM indomethacin with insulin only (I)
[7] = 100 μM indomethacin in DI (no MIX)
[8] = 100 μM indomethacin with insulin only (I)
[9] = 200 μM indomethacin in DI (no MIX)
[10] = 200 μM indomethacin with insulin only (I)

SMILES: CC(C)Cn1c(=O)n(C)c(=O)c2[nH]cnc21 [methyl isobutylxanthine, 1-methyl-3-isobutylxanthine]
- cell phenotype (morphology) [1]: retain a flat fibroblastic phenotype

SMILES: CCCCC/C=C/C=C1/C(=O)C=C[C@@H]1C/C=C\CCCC(=O)O [15d-PGJ2, 15-deoxy Δ^12,14-prostaglandin J2]
- DAPI (cor) ([2]; 1 μM 15d-PGJ2 in DI (no MIX)): 5.99 relative fluorescence intensity
- Nile red (cor) ([2]; 1 μM 15d-PGJ2 in DI (no MIX)): 1.19 relative fluorescence intensity
- Nile red/DAPI ([2]; 1 μM 15d-PGJ2 in DI (no MIX)): 0.20
- DAPI (cor) ([2]; 1 μM 15d-PGJ2 in MDI): 6.53 relative fluorescence intensity
- Nile red (cor) ([2]; 1 μM 15d-PGJ2 in MDI): 13.16 relative fluorescence intensity
- Nile red/DAPI ([2]; 1 μM 15d-PGJ2 in MDI): 2.02
- DAPI (cor) [2, 3]: 4.98 relative fluorescence intensity
- Nile red (cor) [2, 3]: 0.83 relative fluorescence intensity
- Nile red/DAPI [2, 3]: 0.17
- DAPI (cor) ([2]; 10 μM 15d-PGJ2 in MDI): 7.22 relative fluorescence intensity
- Nile red (cor) ([2]; 10 μM 15d-PGJ2 in MDI): 17.56 relative fluorescence intensity
- Nile red/DAPI ([2]; 10 μM 15d-PGJ2 in MDI): 2.43
- DAPI (cor) [2, 4]: 5.75 relative fluorescence intensity
- Nile red (cor) [2, 4]: 0.85 relative fluorescence intensity
- Nile red/DAPI [2, 4]: 0.15
- adipogenic response ([2]; 15d-PGJ2 1 or 10 μM in MDI induction medium): dose dependent increase
- adipogenic effectiveness compared with indomethacin ([2]; 15d-PGJ2 at 10 μM added to MDI medium): nearly as effective as indomethacin
- effect on adipogenesis ([2]; 15d-PGJ2 with insulin alone): no significant effect
- DAPI (cor) ([2]; DI + 10 15d-PGJ2 (no MIX)): 5.36 relative fluorescence intensity
- Nile red (cor) ([2]; DI + 10 15d-PGJ2 (no MIX)): 2.57 relative fluorescence intensity
- Nile red/DAPI ([2]; DI + 10 15d-PGJ2 (no MIX)): 0.48
- adipogenic response ([2]; DI + 15d-PGJ2): weak adipogenic response

SMILES: COc1ccc2c(c1)c(CC(=O)O)c(C)n2C(=O)c1ccc(Cl)cc1 [indomethacin]
- DAPI (cor) [2, 5]: 6.66 relative fluorescence intensity
- Nile red (cor) [2, 5]: 3.11 relative fluorescence intensity
- Nile red/DAPI [2, 5]: 0.47
- DAPI (cor) ([2]; 50 μM indomethacin in MDI): 7.8 relative fluorescence intensity
- Nile red (cor) ([2]; 50 μM indomethacin in MDI): 11.72 relative fluorescence intensity
- Nile red/DAPI ([2]; 50 μM indomethacin in MDI): 1.50
- DAPI (cor) [2, 6]: 5.12 relative fluorescence intensity
- Nile red (cor) [2, 6]: 0.64 relative fluorescence intensity
- Nile red/DAPI [2, 6]: 0.13
- DAPI (cor) [2, 7]: 6.77 relative fluorescence intensity
- Nile red (cor) [2, 7]: 5.35 relative fluorescence intensity
- Nile red/DAPI [2, 7]: 0.79
- DAPI (cor) ([2]; 100 μM indomethacin in MDI): 7.11 relative fluorescence intensity
- Nile red (cor) ([2]; 100 μM indomethacin in MDI): 16.39 relative fluorescence intensity
- Nile red/DAPI ([2]; 100 μM indomethacin in MDI): 2.31
- DAPI (cor) [2, 8]: 5.81 relative fluorescence intensity
- Nile red (cor) [2, 8]: 0.74 relative fluorescence intensity
- Nile red/DAPI [2, 8]: 0.13
- DAPI (cor) [2, 9]: 6.03 relative fluorescence intensity
- Nile red (cor) [2, 9]: 10.08 relative fluorescence intensity
- Nile red/DAPI [2, 9]: 1.67
- DAPI (cor) ([2]; 200 μM indomethacin in MDI): 8.72 relative fluorescence intensity
- Nile red (cor) ([2]; 200 μM indomethacin in MDI): 20.27 relative fluorescence intensity
- Nile red/DAPI ([2]; 200 μM indomethacin in MDI): 2.32
- DAPI (cor) [2, 10]: 5.28 relative fluorescence intensity
- Nile red (cor) [2, 10]: 0.74 relative fluorescence intensity
- Nile red/DAPI [2, 10]: 0.14
- commitment of hMSCs to adipocyte lineage and intracellular lipid accumulation ([2]; indomethacin 50-200 μM in MDI induction medium): dose dependent increase
- hMSCs becoming adipocytes ([2]; indomethacin at 200 μM in MDI): ~100%
- Nile Red staining relative to MDI sample alone ([2]; indomethacin at 200 μM in MDI, fluorescent plate reader): nearly three times that of the MDI sample alone
- adipogenic differentiation level relative to MDI+indomethacin ([2]; indomethacin in DMEM with dexamethasone and insulin only (DI)): approximately half that of the MDI+indomethacin sample
- effect on hMSC adipogenesis ([2]; indomethacin with insulin): no significant effect
